18 compounds from US20120245137A1 (Zalicus Pharmaceuticals Ltd., priority 2009, published 2012) can be followed below.

Format in all cases: cell-based
Assay [1] concerns the target human α1H T-type channels (Homo sapiens, UniProt O95180). The assay is described as follows: T-type calcium channel block, whole cell patch clamp, α1H. To be noted: HEK cells stably expressing human α1H; mainly non-inactivated protocol; values above 10,000 nM represented as 10000. The essentials:
(§1)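 Using standard patch-clamp, T-type currents were recorded from stably transfected human α1G or α1H HEK 293 cells. Separate non-inactivating and inactivation voltage protocols distinguished resting from voltage-dependent block by locally applied compound in 0.1-0.01% DMSO.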
On the technique in general: In patch-clamp work, channel activity is measured electrically.

The target of assay [2] is human α1G T-type channels (Homo sapiens, UniProt O43497). The assay is described as follows: T-type calcium channel block, whole cell patch clamp, α1G. To be noted: HEK cells stably expressing human α1G; mainly non-inactivated protocol; values above 10,000 nM represented as 10000. The method in brief: as §1
Chain of human α1G T-type channels (O43497 whole entry): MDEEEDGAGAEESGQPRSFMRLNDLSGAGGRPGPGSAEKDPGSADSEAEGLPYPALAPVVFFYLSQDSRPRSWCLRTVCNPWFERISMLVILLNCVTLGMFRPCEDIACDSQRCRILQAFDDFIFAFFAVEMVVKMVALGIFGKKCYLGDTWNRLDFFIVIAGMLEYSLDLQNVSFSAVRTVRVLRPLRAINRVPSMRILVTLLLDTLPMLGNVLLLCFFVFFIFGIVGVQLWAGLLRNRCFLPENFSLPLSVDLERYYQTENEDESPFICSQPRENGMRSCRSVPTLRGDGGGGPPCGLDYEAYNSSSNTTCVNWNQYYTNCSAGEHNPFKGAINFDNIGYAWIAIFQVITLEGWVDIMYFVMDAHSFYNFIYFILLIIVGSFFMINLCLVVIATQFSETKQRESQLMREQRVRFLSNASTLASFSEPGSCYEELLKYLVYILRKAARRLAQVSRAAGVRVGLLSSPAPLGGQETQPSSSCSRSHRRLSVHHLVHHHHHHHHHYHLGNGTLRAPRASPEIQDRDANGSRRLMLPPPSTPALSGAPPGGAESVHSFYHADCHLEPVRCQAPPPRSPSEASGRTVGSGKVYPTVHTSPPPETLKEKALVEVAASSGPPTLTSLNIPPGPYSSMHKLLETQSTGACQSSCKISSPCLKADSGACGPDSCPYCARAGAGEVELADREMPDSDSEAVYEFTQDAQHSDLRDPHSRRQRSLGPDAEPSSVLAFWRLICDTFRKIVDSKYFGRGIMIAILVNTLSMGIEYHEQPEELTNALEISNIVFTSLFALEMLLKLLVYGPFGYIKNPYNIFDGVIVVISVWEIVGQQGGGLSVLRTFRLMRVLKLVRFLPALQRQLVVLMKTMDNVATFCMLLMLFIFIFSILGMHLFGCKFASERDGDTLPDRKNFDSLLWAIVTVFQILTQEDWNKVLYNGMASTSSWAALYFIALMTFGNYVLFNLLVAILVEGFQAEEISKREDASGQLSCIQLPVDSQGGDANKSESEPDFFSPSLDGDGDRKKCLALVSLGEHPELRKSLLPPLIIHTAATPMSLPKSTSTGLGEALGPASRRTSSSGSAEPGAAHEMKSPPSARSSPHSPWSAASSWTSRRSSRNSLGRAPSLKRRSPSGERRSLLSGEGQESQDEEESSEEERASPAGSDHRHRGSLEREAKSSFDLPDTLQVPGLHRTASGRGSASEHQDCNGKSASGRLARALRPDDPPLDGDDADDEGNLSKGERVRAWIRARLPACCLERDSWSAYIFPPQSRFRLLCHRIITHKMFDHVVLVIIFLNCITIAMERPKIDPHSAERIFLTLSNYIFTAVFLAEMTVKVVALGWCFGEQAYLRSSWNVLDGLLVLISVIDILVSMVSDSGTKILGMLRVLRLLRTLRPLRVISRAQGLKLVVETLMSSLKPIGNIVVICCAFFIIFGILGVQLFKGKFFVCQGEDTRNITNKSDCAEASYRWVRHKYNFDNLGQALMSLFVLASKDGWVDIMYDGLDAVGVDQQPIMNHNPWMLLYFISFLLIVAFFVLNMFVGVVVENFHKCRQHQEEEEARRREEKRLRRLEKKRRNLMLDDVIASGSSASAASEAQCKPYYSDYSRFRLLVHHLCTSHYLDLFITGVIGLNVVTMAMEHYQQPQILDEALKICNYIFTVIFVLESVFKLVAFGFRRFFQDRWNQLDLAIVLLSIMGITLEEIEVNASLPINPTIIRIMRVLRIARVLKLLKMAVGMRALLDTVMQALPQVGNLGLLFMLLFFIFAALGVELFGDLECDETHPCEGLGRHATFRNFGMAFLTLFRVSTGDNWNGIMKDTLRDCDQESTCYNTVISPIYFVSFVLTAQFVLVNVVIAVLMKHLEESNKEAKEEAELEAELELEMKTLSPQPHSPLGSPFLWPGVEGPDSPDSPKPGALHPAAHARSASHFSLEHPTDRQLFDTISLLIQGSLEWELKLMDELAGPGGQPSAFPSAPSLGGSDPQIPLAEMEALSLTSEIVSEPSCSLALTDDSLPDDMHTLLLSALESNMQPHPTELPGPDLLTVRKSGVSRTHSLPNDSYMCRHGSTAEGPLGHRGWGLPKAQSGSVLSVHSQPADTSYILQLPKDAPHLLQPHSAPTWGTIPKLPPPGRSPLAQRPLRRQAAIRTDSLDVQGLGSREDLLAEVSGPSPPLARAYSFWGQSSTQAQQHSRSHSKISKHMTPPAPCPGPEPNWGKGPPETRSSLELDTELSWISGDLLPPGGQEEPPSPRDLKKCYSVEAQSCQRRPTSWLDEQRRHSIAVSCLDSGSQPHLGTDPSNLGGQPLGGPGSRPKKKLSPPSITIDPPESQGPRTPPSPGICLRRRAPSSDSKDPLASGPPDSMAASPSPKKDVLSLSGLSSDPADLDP
For assay [3], the target named is N-type calcium channel subunits (α1B, α2δ, and β3a) (Homo sapiens, UniProt Q00975). Description: Block of Cav2.2 channel, whole cell voltage clamp, manual and PatchXpress. To be noted: Table 5; table follows Assay Example 3 (whole cell voltage clamp / PatchXpress); assay not given. The method in brief: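 Percent block taken as current amplitude ratio with versus without compound, applied in rising doses; IC50 fitted where one cell received multiple doses. Protocol: 50 ms pulses to +20 mV at 0.067 Hz from […] or −90 mV holding; P/n leak subtraction, no junction-potential correction; manual and PatchXpress recordings.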

Chain of human α1H T-type channels (O95180 whole entry): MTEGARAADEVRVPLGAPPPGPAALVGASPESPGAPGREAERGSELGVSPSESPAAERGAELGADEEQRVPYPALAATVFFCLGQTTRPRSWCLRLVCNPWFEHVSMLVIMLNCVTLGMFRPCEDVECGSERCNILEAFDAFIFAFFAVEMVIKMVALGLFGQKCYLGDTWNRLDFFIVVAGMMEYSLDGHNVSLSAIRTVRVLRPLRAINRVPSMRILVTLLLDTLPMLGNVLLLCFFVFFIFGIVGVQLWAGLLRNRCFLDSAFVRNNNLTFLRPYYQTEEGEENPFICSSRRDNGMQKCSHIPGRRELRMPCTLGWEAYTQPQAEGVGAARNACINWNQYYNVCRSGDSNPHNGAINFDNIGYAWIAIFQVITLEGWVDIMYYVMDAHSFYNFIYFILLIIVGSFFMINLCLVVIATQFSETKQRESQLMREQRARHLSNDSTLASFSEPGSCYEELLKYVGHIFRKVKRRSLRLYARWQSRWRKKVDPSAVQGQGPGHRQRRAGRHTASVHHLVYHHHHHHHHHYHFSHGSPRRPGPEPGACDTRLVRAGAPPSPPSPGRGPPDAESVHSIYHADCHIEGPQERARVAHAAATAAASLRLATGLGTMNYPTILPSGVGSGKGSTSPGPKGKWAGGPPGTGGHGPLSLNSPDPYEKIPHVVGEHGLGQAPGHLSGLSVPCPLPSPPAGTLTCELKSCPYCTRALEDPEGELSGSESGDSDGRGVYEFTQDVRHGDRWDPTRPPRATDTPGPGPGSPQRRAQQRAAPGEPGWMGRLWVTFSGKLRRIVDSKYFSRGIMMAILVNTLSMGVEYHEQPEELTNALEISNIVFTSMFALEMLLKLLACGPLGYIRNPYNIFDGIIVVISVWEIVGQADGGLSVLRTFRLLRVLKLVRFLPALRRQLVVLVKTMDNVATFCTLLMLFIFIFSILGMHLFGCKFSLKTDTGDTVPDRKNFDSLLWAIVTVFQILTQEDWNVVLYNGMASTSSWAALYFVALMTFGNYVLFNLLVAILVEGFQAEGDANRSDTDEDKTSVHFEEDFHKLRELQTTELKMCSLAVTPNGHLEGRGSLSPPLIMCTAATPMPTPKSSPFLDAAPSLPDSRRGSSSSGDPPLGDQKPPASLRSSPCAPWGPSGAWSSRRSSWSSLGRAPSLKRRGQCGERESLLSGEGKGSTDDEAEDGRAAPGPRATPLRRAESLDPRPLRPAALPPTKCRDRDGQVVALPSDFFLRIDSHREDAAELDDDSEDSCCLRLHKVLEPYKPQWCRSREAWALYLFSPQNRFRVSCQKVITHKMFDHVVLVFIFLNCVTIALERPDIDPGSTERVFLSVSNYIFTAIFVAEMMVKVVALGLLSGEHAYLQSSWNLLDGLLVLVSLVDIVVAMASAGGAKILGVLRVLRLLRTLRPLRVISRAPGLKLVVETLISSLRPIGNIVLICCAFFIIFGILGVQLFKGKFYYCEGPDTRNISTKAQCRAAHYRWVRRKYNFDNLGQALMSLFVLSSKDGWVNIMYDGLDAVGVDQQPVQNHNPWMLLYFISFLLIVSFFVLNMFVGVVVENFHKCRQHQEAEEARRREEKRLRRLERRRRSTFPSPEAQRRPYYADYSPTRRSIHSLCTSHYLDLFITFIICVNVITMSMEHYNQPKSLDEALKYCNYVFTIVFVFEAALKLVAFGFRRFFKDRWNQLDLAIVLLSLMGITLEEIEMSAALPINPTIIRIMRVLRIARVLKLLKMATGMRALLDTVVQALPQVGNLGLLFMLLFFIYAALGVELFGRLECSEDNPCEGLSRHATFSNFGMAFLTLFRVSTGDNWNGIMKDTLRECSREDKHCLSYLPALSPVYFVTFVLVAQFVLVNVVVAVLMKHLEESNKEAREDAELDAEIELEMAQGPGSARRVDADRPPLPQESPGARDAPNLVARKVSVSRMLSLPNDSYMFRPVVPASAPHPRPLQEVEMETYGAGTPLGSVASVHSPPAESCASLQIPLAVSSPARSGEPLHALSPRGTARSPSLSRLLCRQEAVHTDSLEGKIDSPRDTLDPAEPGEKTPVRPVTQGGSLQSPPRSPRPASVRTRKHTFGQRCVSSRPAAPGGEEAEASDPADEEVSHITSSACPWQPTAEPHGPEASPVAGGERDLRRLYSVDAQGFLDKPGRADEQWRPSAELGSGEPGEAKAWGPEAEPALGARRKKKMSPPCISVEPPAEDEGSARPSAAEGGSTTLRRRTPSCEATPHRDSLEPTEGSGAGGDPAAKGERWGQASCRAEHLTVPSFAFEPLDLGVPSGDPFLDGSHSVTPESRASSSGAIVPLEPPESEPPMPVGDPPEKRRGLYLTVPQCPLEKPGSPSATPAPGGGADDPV

In the case of `CC(C)S(=O)(=O)c1cc(C(F)(F)F)cnc1C(=O)N[C@H]1CC[C@@](F)(S(=O)(=O)c2cccc(C(F)(F)F)c2)CC1` [Compound 281, N-((1S,4S)-4-fluoro-4-(3-(trifluoromethyl)phenylsulfonyl)cyclohexyl)-3-(isopropylsulfonyl)-5-(trifluoromethyl)picolinamide], the figures for the IC50 in assay [1], in assay [2] and in assay [3] were 1460 nM, 8530 nM and 30 nM, respectively.

As to `O=C(N[C@H]1CC[C@@](F)(S(=O)(=O)c2cccc(C(F)(F)F)c2)CC1)[C@@H]1C[C@@H](c2ccccc2)CN1` [Compound 285, (2S,4S)-N-((1S,4R)-4-fluoro-4-(3-(trifluoromethyl)phenylsulfonyl)cyclohexyl)-4-phenylpyrrolidine-2-carboxamide], the results for the concentration for half-maximal inhibition (IC50) in assay [1], in assay [2] and in assay [3] were 1280 nM, more than 10000 nM and 360 nM, respectively.

For the compound `O=C(N[C@H]1CC[C@@](F)(S(=O)(=O)c2cccc(C(F)(F)F)c2)CC1)[C@@H]1C[C@H](c2ccccc2)CN1` [Compound 286, (2S,4R)-N-((1S,4R)-4-fluoro-4-(3-(trifluoromethyl)phenylsulfonyl)cyclohexyl)-4-phenylpyrrolidine-2-carboxamide], the IC50 came out at 1540 nM in assay [1], 3190 nM in assay [2] and 390 nM in assay [3].

Take `O=C(N[C@H]1CC[C@@](F)(S(=O)(=O)c2cccc(C(F)(F)F)c2)CC1)[C@@H]1C[C@@H](Cc2ccc(F)cc2)CN1` [Compound 287, (2S,4R)-N-((1S,4R)-4-fluoro-4-(3-(trifluoromethyl)phenylsulfonyl)cyclohexyl)-4-(4-fluorobenzyl)pyrrolidine-2-carboxamide]: the IC50 in assay [1] stood at 1130 nM; in assay [2], 6500 nM; in assay [3], 310 nM.

Take `O=C(N[C@H]1CC[C@@](F)(S(=O)(=O)c2cccc(C(F)(F)F)c2)CC1)[C@H]1CC[C@@H](c2ccccc2)N1` [Compound 288, (2R,5S)-N-((1S,4S)-4-fluoro-4-(3-(trifluoromethyl)phenylsulfonyl)cyclohexyl)-5-phenylpyrrolidine-2-carboxamide]: the IC50 is 3260 nM in assay [1], more than 10000 nM in assay [2] and 640 nM in assay [3].

As to `O=C(N[C@H]1CC[C@@](F)(S(=O)(=O)c2cccc(C(F)(F)F)c2)CC1)[C@@H]1CC[C@H](c2ccccc2)N1` [Compound 289], the figures for the IC50 in assay [1], in assay [2] and in assay [3] were 1040 nM, 1400 nM and 540 nM, respectively.

For `O=C1c2ccc(C(F)(F)F)nc2CN1[C@H]1CC[C@@](F)(S(=O)(=O)c2cccc(C(F)(F)F)c2)CC1` [Compound 290, 6-((1S,4S)-4-f1uoro-4-(3-(trifluoromethyl)phenylsulfonyl)cyclohexyl)-2-(trifluoromethyl)-6,dihydro-5Hpyrrolo[3,4-b]pyridin-5-one], the 50% inhibitory concentration (IC50) worked out at 570 nM in assay [1], 1180 nM in assay [2] and 420 nM in assay [3].

For `CC(C)(C(=O)N[C@H]1CC[C@@](F)(S(=O)(=O)c2cccc(C(F)(F)F)c2)CC1)S(=O)(=O)c1cccc(C(F)(F)F)c1` [Compound 291, N-((1S,4S)-4-fluoro-4-(3-(trifluoromethyl)phenylsulfonyl)cyclohexyl)-2-methyl-2-(3-(trifluoromethyl)phenylsulfonyl)propanamide], the IC50 in assay [1] was 6060 nM; in assay [2], more than 10000 nM; in assay [3], 50 nM.

As for `Cc1nn(C)c(C)c1S(=O)(=O)N[C@H]1CC[C@@](F)(S(=O)(=O)c2cccc(C(F)(F)F)c2)CC1` [Compound 293, N-((1S,4S)-4-fluoro-4-(3-(trifluoromethyl)phenylsulfonyl)cyclohexyl)-1,3,5-trimethyl-1H-pyrazole-4-sulfonamide], the 50% inhibitory concentration (IC50) in assay [1] turned out to be 1850 nM; in assay [2], 4770 nM; in assay [3], 1630 nM.

Regarding `O=S(=O)(CCC(F)(F)F)N[C@H]1CC[C@@](F)(S(=O)(=O)c2cccc(C(F)(F)F)c2)CC1` [Compound 295, 3,3,3-trifluoro-N-((1S,4S)-4-fluoro-4-(3-(trifluoromethyl)phenylsulfonyl)cyclohexyl) propane-1-sulfonamide], the results for the IC50 in assay [1], in assay [2] and in assay [3] were 320 nM, 630 nM and 790 nM, respectively.

Consider `Cn1cnc(S(=O)(=O)N[C@H]2CC[C@@](F)(S(=O)(=O)c3cccc(C(F)(F)F)c3)CC2)c1` [Compound 296, N-((1S,4S)-4-fluoro-4-(3-(trifluoromethyl)phenylsulfonyl)cyclohexyl)-1-methyl-1H-imidazole-4-sulfonamide], for which the IC50 in assay [1] is 850 nM; in assay [2], 2830 nM; in assay [3], 4230 nM.

`O=S(=O)(N[C@H]1CC[C@@](F)(S(=O)(=O)c2cccc(C(F)(F)F)c2)CC1)c1ccc(C(F)(F)F)cc1Cl` [Compound 297, 2-chloro-N-((1S,4S)-4-fluoro-4-(3-(trifluoromethyl)phenylsulfonyl)cyclohexyl)-4-(trifluoromethyl) benzenesulfonamide]: the results for the half-inhibitory concentration (IC50) in assay [1], in assay [2] and in assay [3] were 300 nM, 850 nM and 720 nM, respectively.

For `Cc1noc(C)c1S(=O)(=O)N[C@H]1CC[C@@](F)(S(=O)(=O)c2cccc(C(F)(F)F)c2)CC1` [Compound 298, N-((1S,4S)-4-fluoro-4-(3-(trifluoromethyl)phenylsulfonyl)cyclohexyl)-3,5-dimethylisoxazole-4-sulfonamide], the IC50 in assay [1] is 240 nM; in assay [2] it was 880 nM; in assay [3] it was 850 nM.

`O=S(=O)(N[C@H]1CC[C@@](F)(S(=O)(=O)c2cccc(C(F)(F)F)c2)CC1)c1ccccc1C(F)(F)F` [Compound 299, N-((1S,4S)-4-fluoro-4-(3-(trifluoromethyl)phenylsulfonyl)cyclohexyl)-2-(trifluoromethyl) benzenesulfonamide]: the IC50 in assay [1] worked out at 210 nM; in assay [2], 640 nM; in assay [3] it was 730 nM.

Turning to `O=S(=O)(N[C@H]1CC[C@@](F)(S(=O)(=O)c2cccc(C(F)(F)F)c2)CC1)c1cccc(C(F)(F)F)c1` [Compound 300, N-((1S,4S)-4-fluoro-4-(3-(trifluoromethyl)phenylsulfonyl)cyclohexyl)-3-(trifluoromethyl) benzenesulfonamide], the half-inhibitory concentration (IC50) in assay [1] is 430 nM; in assay [2] it was 280 nM; in assay [3] it was 700 nM.

In the case of `O=S(=O)(N[C@H]1CC[C@@](F)(S(=O)(=O)c2cccc(C(F)(F)F)c2)CC1)c1ccc(OC(F)(F)F)cc1` [Compound 302, N-((1S,4S)-4-fluoro-4-(3-(trifluoromethyl)phenylsultonyl)cyclohexyl)-4-(trifluoromethoxy) benzenesulfonamide], the IC50 stood at 850 nM in assay [1], 970 nM in assay [2] and 400 nM in assay [3].

Regarding `CC1(C(=O)N[C@H]2CC[C@@](F)(S(=O)(=O)c3cccc(C(F)(F)F)c3)CC2)CC1` [Compound 303, N-((1S,4S)-4-fluoro-4-(3-(tritluoromethyl)phenylsulfonyl)cyclohexyl)-1-methylcyclopropane carboxamide], the IC50 is 4150 nM in assay [1], 4340 nM in assay [2] and 180 nM in assay [3].

Regarding `O=C(N[C@H]1CC[C@@](F)(S(=O)(=O)c2cccc(C(F)(F)F)c2)CC1)[C@H]1C[C@@H]1c1ccccc1` [Compound 304, (1S,2S)-N-((1S,4R)-4-fluoro-4-(3-(trifluoromethyl)phenylsulfonyl)cyclohexyl)-2-phenylcyclopropane carboxamide], the IC50 in assay [1] came out at 2440 nM; in assay [2] it was 1550 nM; in assay [3], 230 nM.

As usually defined, the IC50 is the concentration needed to halve the response being measured.
